Consider two compounds from publication PMC9919957 (2023).

By melting point is commonly meant the temperature of the solid-liquid transition.

The compound `O=C1CC(c2ccc(O)cc2)Oc2cc(OC3OC(CO)C(O)C3O)cc(O)c21` (centres unmarked) registered a melting point of 229 to 230 °C.
The value for `NCC[C@H]1C[C@H](O)C(=O)O1` (hydrate or solvate) was 347 to 350 °C.
